Data set [1] can be described thus: Stability of curcumin analogs by time-dependent intrinsic fluorescence. The format is physicochemical. Conditions: 20 mM MES buffer pH 6.0, 0.01% NaN3, 37 °C. As for the experimental part: 1μl of this DMSO-stock solution was transferred to 2 ml microfuge tube and 1 ml of 20 mM MES buffer (pH 6.0, 0.01% NaN3) was added to it and mixed immediately by vortexing. These solutions were incubated at 37 °C and their respective fluorescence was taken at certain time intervals. The fluorescence was monitored by placing the 200 μl of the incubated solution in 0.1 cm path-length quartz cuvette (Hellma, Forest Hills, NY) and the spectra were acquired by using FluoroMax-4 spectrofluorometer (HORIBA JobinYvon) instrument with excitation and emission slit widths of 5 nm and 10 nm respectively. The fluorescence intensity maxima for each sample were plotted against time of incubation and fitted in exponential decay 1 in the Origin 8.0 software according to manufacture’s protocol (Fig. 2A).

Data set [2] concerns the target T1, α-Syn (Homo sapiens, UniProt P37840).
T1 construct: made in house; host or cells: Escherichia coli BL21
Briefly: TEM of α-Syn aggregates formed in presence of analogs. In kind it is biochemical. As for the experimental part: (§1) Subsequently, we examined the effect of these analogs on α-Syn oligomerization by time dependent static light scattering experiment. […] After aggregation, TEM study was done to determine the effects of these analogs on the morphology of the resultant aggregates.
(§2) The samples were then washed thrice with autoclaved MQ. The samples were then stained with 10 μl of uranyl formate 1% (w/v) and incubated in dark for 10 min. The EM image of each sample was acquired at 120 kV with magnifications in the range of 26,000X and 43,000X using a transmission electron microscope (TECNAI12 D312 FEI, Netherlands).

Data set [3] has as its target T1, α-Syn. Briefly: α-Syn aggregation kinetics by compound fluorescence. In kind it is biochemical. The conditions noted are these: in presence of analog. As for the experimental part:
ThT fluorescence was used to monitor the aggregation kinetics of α-Syn only as a control.
as §1
The α-Syn amyloid aggregation was started with LMW α-Syn of concentration ~300 μM in 1.5 ml microfuge tube in 20 mM MES buffer, pH 6.0, with 0.01% NaN3. […] The microfuge tubes with protein solutions were placed into Echo-Therm model RT11 vertical rotor (Torrey Pines Scientific, USA) with a speed of 50 rpm, at 37 °C inside an incubator.
The experiments were performed in FluoroMax-4 spectrofluorometer (HORIBA JobinYvon) with excitation and emission slit widths of 5 nm. Fluorescence was done in 20 mM MES buffer (pH 6.0, 0.01% NaN3).

The target of data set [4] is T2, preformed α-Syn amyloid fibrils (Homo sapiens, UniProt P37840).
T2 construct: made in house; host or cells: Escherichia coli BL21
Briefly: TEM of preformed α-Syn fibrils with analogs. The format is biochemical. The conditions noted are these: after 48 h incubation with analog. As for the experimental part: as §2

A further data set has as its target T3, α-Syn fibrils (Homo sapiens, UniProt P37840).
T3 construct: made in house; host or cells: Escherichia coli BL21
Briefly: Binding affinity to α-Syn fibrils by curcumin analog fluorescence. The conditions noted are these: for binding with preformed α-Syn fibrils: compound fluorescence. As for the experimental part:
To estimate the comparative binding affinity of curcumin analogs to the α-Syn fibrils and oligomers, curcumin fluorescence assay was performed for each analog. For binding study with fibrils, 10 μM of α-Syn fibrils were incubated in presence of varying concentration of curcumin and its analogs (0.25 μM to 30 μM) for 30 min at RT in dark and then fluorescence spectra were recorded. The normalized fluorescence intensity of different concentrations of curcumin/analogs at their corresponding λmax was plotted to obtain their respective saturation plots (Figs 6A and S7). From the saturation plot, dissociation constant (Kd) was calculated (see method section).
The binding of curcumin/analogs to α-Syn fibrils were determined based on change in fluorescence intensity. For this study, 10 μM α-Syn fibrils were incubated in presence and absence of varying concentration of curcumin/analogs (0.25 μM to 30 μM) for 30 min at RT in dark. Immediately after incubation, fluorescence study was performed (for the excitation and emission ranges for each compounds, see Fig. S1). Experiments were performed using FluoroMax-4 spectrofluorometer (HORIBA JobinYvon) with excitation and emission slit widths of 5 nm. The maximum fluorescence intensity for curcumin/analogs was normalized with respect to that of the lowest concentration of each analog. The normalized fluorescence intensity was plotted against increasing concentration of curcumin/analogs and the dissociation constant was determined using the equation
where, “ΔF” is the change in the fluorescence intensity of curcumin/analogs, “ΔFmax” is the change in the fluorescence intensity at saturation point and “L”is the concentration of curcumin/analogs. The data were analyzed in Graphpad Prism software according to established method as used previously. Similarly, the dissociation constant of curcumin and its analogs with preformed α-Syn oligomers and monomers (obtained from SEC) were also determined.

The target of data set [5] is T4, preformed α-Syn fibrils (Homo sapiens, UniProt P37840).
T4 construct: made in house; host or cells: Escherichia coli BL21
Nature of the data set: LDH cytotoxicity assay of preformed α-Syn fibrils incubated with curcumin analogs. The format is cell-based. The conditions noted are these: fibrils incubated with analog 48 h; SH-SY5Y cells. As for the experimental part:
The concentration of the fibrils was determined by subtraction of supernatant concentration from the original concentration of α-Syn kept for fibrillation.
The percent LDH release was plotted as difference in the absorbance value of 490 nm and 690 nm, considering 100% release for the TritonX-100 treated cells.

Data set [6] deals with T4, preformed α-Syn fibrils. Briefly: Nile red binding assay on preformed α-Syn fibrils. In kind it is biochemical. Conditions: fibrils incubated with analog 48 h. As for the experimental part:
Stock solution of NR was prepared in DMSO (1 mM). […] Similar experimental protocol was used for NR binding to oligomers. FluoroMax-4 spectrofluorometer (HORIBA JobinYvon) was used with excitation and emission slit widths of 5 nm. The maximum NR fluorescence obtained at ~630 nm was used for plotting bar diagrams.

Another data set concerns the target T5, α-Syn oligomers (Homo sapiens, UniProt P37840).
T5 construct: made in house; host or cells: Escherichia coli BL21
Nature of the data set: Binding affinity to α-Syn oligomers by curcumin analog fluorescence. The conditions noted are these: for Kd: compound fluorescence, read-out: dissociation constant (Kd) for α-Syn oligomers; for affinity to oligomers compared to fibrils: comparison of Kd for fibrils and oligomers. As for the experimental part: Immediately after incubation, fluorescence study was performed (for the excitation and emission ranges for each compounds, see Fig. S1). Experiments were performed using FluoroMax-4 spectrofluorometer (HORIBA JobinYvon) with excitation and emission slit widths of 5 nm.
The data were analyzed in Graphpad Prism software according to established method as used previously.

In the case of `O=C(/C=C/c1cccnc1)CC(=O)/C=C/c1cccnc1` [C9], the “relative stability compared with curcumin (slope of normalized fluorescence versus time)” value in data set [1] was “relatively more stable than curcumin”. Also, on α-Syn [2], the “morphology of α-Syn aggregates formed in presence of analog (TEM)” value (shortened to “morphology of α-Syn aggregates formed”) is given as “fibrils with shorter length”. Moreover, at α-Syn [3], the “effect on rate/kinetics of α-Syn aggregation” value (from here on “effect on rate/kinetics”) is reported as “less significant effect”. In addition, in data set [4], the “fibril morphology/thickness of preformed α-Syn fibrils (TEM, words)” value (from here on “fibril morphology/thickness”) is listed as “thinner fibrils”. For the same molecule, the “binding with preformed α-Syn fibrils” value at α-Syn fibrils is reported as “did not show any significant binding”.
`COc1ccc(OC)c(/C=C/C(=O)CC(=O)/C=C/c2cc(OC)ccc2OC)c1` [C5]: the “relative stability compared with curcumin (slope of normalized fluorescence versus time)” value in data set [1] is given as “relatively more stable than curcumin”. The “morphology of α-Syn aggregates formed” value at α-Syn [2] is recorded as “fibrils with shorter length”. In addition, the “effect on cell death by preformed α-Syn fibrils, LDH” value (“effect on cell death” below) on preformed α-Syn fibrils [5] was “decrease in cell death”. For the same molecule, the “effect on rate/kinetics” value on α-Syn [3] is given as “increases the rate of α-Syn aggregation”. The “Nile red fluorescence of preformed α-Syn fibrils (exposed hydrophobic surface)” value at preformed α-Syn fibrils [6] is recorded as “less NR fluorescence for fibrils as compared to curcumin”.
On to `O=C(/C=C/c1ccccc1)CC(=O)/C=C/c1ccccc1` [C7], for which the “relative stability compared with curcumin (slope of normalized fluorescence versus time)” value in data set [1] is given as “relatively more stable than curcumin”. For the same molecule, at α-Syn [2], the “average fibril thickness of fibrils formed in presence of analog” value was “more in comparison to fibrils formed in presence of other analogs” and the “morphology of α-Syn aggregates formed” value is reported as “fibrils with shorter length”. Besides, the “effect on cell death” value on preformed α-Syn fibrils [5] is reported as “decrease in cell death”. The “fibril morphology/thickness” value in data set [4] was “thinner fibrils”. In addition, the Kd on α-Syn fibrils (10 μM fibrils, 0.25–30 μM analog, 30 min RT, read-out: dissociation constant (Kd) for α-Syn fibrils) was 13.2 ± 2.29 µM. For the same molecule, on α-Syn fibrils, the “binding with preformed α-Syn fibrils” value is given as “very weak binding”.
With `COc1ccc(/C=C/C(=O)CC(=O)/C=C/c2ccc(OC)cc2OC)c(OC)c1` [C4], the dissociation constant (Kd) at α-Syn oligomers stood at 16.5 ± 2.63 µM.
As for `COc1ccc(/C=C/C(=O)CC(=O)/C=C/c2ccc(OC)cc2)cc1` [C10], on α-Syn oligomers, the “affinity to oligomers compared to fibrils” value is reported as “higher binding affinity to oligomers as compared to fibrils”. Further, the “relative stability compared with curcumin (slope of normalized fluorescence versus time)” value in data set [1] is “relatively more stable than curcumin”. At α-Syn [2], the “morphology of α-Syn aggregates formed” value is “fibrils with shorter length”. The “effect on cell death” value at preformed α-Syn fibrils [5] is listed as “decrease in cell death”.
Regarding `O=C(/C=C/c1cccs1)CC(=O)/C=C/c1cccs1` [C8], on α-Syn oligomers, the “affinity to oligomers compared to fibrils” value is recorded as “higher binding affinity to oligomers as compared to fibrils” and the Kd was 1.46 ± 0.2 µM. The “relative stability compared with curcumin (slope of normalized fluorescence versus time)” value in data set [1] was “relatively more stable than curcumin”. The “effect on cell death” value on preformed α-Syn fibrils [5] is listed as “decrease in cell death”. Besides, the “effect on rate/kinetics” value on α-Syn [3] is “less significant effect”. Further, the “fibril morphology/thickness” value in data set [4] is recorded as “thinner fibrils”.

The values above are taken from PMC4919791, “Effect of curcumin analogs onα-synuclein aggregation and cytotoxicity” (Scientific Reports, 2016).
